# Data published in patent US9732119B2, “Immunomodulators” (BRISTOL-MYERS SQUIBB COMPANY, priority 2014, dated 2017).
# Positions of bridges follow the written chain, without caps; N, C: chain ends. Non-standard residues stand in square brackets, D forms with d. Residues, ends and D or L forms follow the SMILES beside them. Trp(1-CH2COOH) = N[C@@H](Cc1cn(CC(=O)O)c2ccccc12)C(=O)O; Phe(4-Cl) = N[C@@H](Cc1ccc(Cl)cc1)C(=O)O; Phe(4-Me) = Cc1ccc(C[C@H](N)C(=O)O)cc1; Hyp = O=C(O)[C@@H]1C[C@@H](O)CN1; Aad = N[C@@H](CCCC(=O)O)C(=O)O; NMeNle = CCCC[C@H](NC)C(=O)O; Pip = O=C(O)[C@@H]1CCCCN1; NMeA = CN[C@@H](C)C(=O)O; Orn = NCCC[C@H](N)C(=O)O; Dab = NCC[C@H](N)C(=O)O; Dap = NC[C@H](N)C(=O)O; Ava = NCCCCC(=O)O; Sar = CNCC(=O)O
# Target: T1, PD-1-Ig binding to PD-L1-TVMV-His (PD-L1-His) (Homo sapiens, UniProt Q9NZQ7)
# T1 construct: hPDL1(19-239)-TVMV-His; made in house; host or cells: HEK293T cells
# Test: PD-1/PD-L1 Homogenous Time-Resolved Fluorescence (HTRF) binding assay
# Conditions: PD-1-Ig (20 nM) / PD-L1-His (10 nM); numeric values
# Summary of the method: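 In dPBS with 0.1% BSA and 0.05% Tween-20, inhibitors were preincubated 15 min with 10 nM PD-L1-His before 20 nM PD-1-Ig was added for another 15 min. Binding read by time-resolved FRET between Eu-cryptate anti-Ig (1 nM) and APC anti-His (20 nM).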
# T1 sequence (Q9NZQ7 with tags, fused parts or gaps): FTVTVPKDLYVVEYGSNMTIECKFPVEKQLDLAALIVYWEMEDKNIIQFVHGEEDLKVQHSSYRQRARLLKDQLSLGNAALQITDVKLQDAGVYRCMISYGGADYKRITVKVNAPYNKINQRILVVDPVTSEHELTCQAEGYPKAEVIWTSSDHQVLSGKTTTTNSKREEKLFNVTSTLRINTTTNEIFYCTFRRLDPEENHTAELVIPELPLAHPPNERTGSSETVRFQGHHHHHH
row,Compound,IC50
1,CCCC[C@H]1C(=O)N(C)[C@@H](CCCC)C(=O)N[C@@H](CC(C)C)C(=O)N[C@H](C(=O)NCC(N)=O)CNCC(=O)N[C@@H](Cc2ccc(O)cc2)C(=O)N(C)[C@@H](C)C(=O)N[C@@H](CC(N)=O)C(=O)N2CCC[C@H]2C(=O)N[C@@H](CCC(N)=O)C(=O)N[C@@H](CCC(=O)O)C(=O)N2C[C@H](O)C[C@H]2C(=O)N[C@@H](Cc2c[nH]c3ccccc23)C(=O)N[C@@H](CC(N)=O)C(=O)N[C@@H](Cc2cn(CC(=O)O)c3ccccc23)C(=O)N1C [Example 9007],5 nM

# Same assay, conditions: PD-1-Ig (20 nM) / PD-L1-His (10 nM); range classes
row,Compound,IC50
1,CCCC[C@H]1C(=O)N(C)[C@@H](CCCC)C(=O)N[C@@H](CC(C)C)C(=O)NCCC[C@H](N)C(=O)N[C@@H](Cc2ccc(OC)cc2)C(=O)N2CCCC[C@H]2C(=O)N[C@@H](CC(N)=O)C(=O)N2CCC[C@H]2C(=O)N[C@@H](CN)C(=O)N[C@@H](CCC(=O)O)C(=O)N2C[C@H](O)C[C@H]2C(=O)N[C@@H](Cc2c[nH]c3ccccc23)C(=O)N[C@@H](CCN)C(=O)N[C@@H](Cc2cn(CC(=O)O)c3ccccc23)C(=O)N1C [Example 10551] (H-[Orn]Y(Me)[Pip]NP[Dap]E[Hyp]W[Dab][Trp(1-CH2COOH)][NMeNle][NMeNle]L; lactam 1-C),1 to 9.9 nM
2,CCCC[C@H]1C(=O)N(C)[C@@H](CCCC)C(=O)N[C@@H](CC(C)C)C(=O)NCCC[C@H](N)C(=O)N[C@@H](Cc2ccc(O)cc2)C(=O)N2CCCC[C@H]2C(=O)N[C@@H](CC(N)=O)C(=O)N2CCC[C@H]2C(=O)N[C@@H](CN)C(=O)N[C@@H](CC(C)C)C(=O)N2C[C@H](O)C[C@H]2C(=O)N[C@@H](Cc2c[nH]c3ccccc23)C(=O)N[C@@H](CCN)C(=O)N[C@@H](Cc2cn(CC(=O)O)c3ccccc23)C(=O)N1C [Example 10517] (H-[Orn]Y[Pip]NP[Dap]L[Hyp]W[Dab][Trp(1-CH2COOH)][NMeNle][NMeNle]L; lactam 1-C),10 to 99 nM
3,CCCC[C@H]1C(=O)N(C)[C@@H](CCCC)C(=O)N[C@@H](CCC(=O)O)C(=O)N[C@H](C(=O)NCC(N)=O)CNCC(=O)N[C@@H](Cc2ccc(O)cc2)C(=O)N(C)[C@@H](C)C(=O)N[C@@H](CC(N)=O)C(=O)N2CCC[C@H]2C(=O)N[C@@H](CCC(N)=O)C(=O)N[C@@H](CCC(=O)O)C(=O)N2C[C@H](O)C[C@H]2C(=O)N[C@@H](Cc2c[nH]c3ccccc23)C(=O)N[C@@H](CC(N)=O)C(=O)N[C@@H](Cc2cn(CC(=O)O)c3ccccc23)C(=O)N1C [Example 9020],10 to 99 nM
4,CCCC[C@H]1C(=O)N(C)[C@@H](CCCC)C(=O)N[C@@H](CC(C)C)C(=O)NCCC[C@H](N)C(=O)N[C@@H](Cc2ccc(OC)cc2)C(=O)N2CCCC[C@H]2C(=O)N[C@@H](CC(N)=O)C(=O)N2CCC[C@H]2C(=O)N[C@@H](CN)C(=O)N[C@@H](CC(C)C)C(=O)N2C[C@H](O)C[C@H]2C(=O)N[C@@H](Cc2c[nH]c3ccccc23)C(=O)N[C@@H](CCN)C(=O)N[C@@H](Cc2cn(CC(=O)O)c3ccccc23)C(=O)N1C [Example 10518] (H-[Orn]Y(Me)[Pip]NP[Dap]L[Hyp]W[Dab][Trp(1-CH2COOH)][NMeNle][NMeNle]L; lactam 1-C),10 to 99 nM
5,CCCC[C@H]1C(=O)N(C)[C@@H](CCCC)C(=O)N[C@@H](CC(C)C)C(=O)N[C@H](C(=O)NCC(N)=O)CNCC(=O)N[C@@H](Cc2ccc(F)cc2)C(=O)N(C)[C@@H](C)C(=O)N[C@@H](CC(N)=O)C(=O)N2CCC[C@H]2C(=O)N[C@@H](CCC(N)=O)C(=O)N[C@@H](CCC(=O)O)C(=O)N2C[C@H](O)C[C@H]2C(=O)N[C@@H](Cc2c[nH]c3ccccc23)C(=O)N[C@@H](CC(N)=O)C(=O)N[C@@H](Cc2cn(CC(=O)O)c3ccccc23)C(=O)N1C [Example 9011],10 to 99 nM
6,CCCC[C@H]1C(=O)N(C)[C@@H](CCCC)C(=O)N[C@@H](CC(C)C)C(=O)NCCCCC(=O)N[C@@H](Cc2ccc(C)cc2)C(=O)N2CCCC[C@H]2C(=O)N[C@@H](CC(N)=O)C(=O)N2CCC[C@H]2C(=O)N[C@@H](CN)C(=O)N[C@@H](CCC(=O)O)C(=O)N2C[C@H](O)C[C@H]2C(=O)N[C@@H](Cc2c[nH]c3ccccc23)C(=O)N[C@@H](CCN)C(=O)N[C@@H](Cc2cn(CC(=O)O)c3ccccc23)C(=O)N1C [Example 10541] (cyclo([Ava][Phe(4-Me)][Pip]NP[Dap]E[Hyp]W[Dab][Trp(1-CH2COOH)][NMeNle][NMeNle]L)),1 to 9.9 nM
7,CCCC[C@H]1C(=O)N(C)[C@@H](CCCC)C(=O)N[C@@H](CC(C)C)C(=O)N[C@H](C(=O)NCC(N)=O)CNCC(=O)N[C@@H](Cc2ccc(O)cc2)C(=O)N(C)[C@@H](C)C(=O)N[C@@H](CC(N)=O)C(=O)N2CCC[C@H]2C(=O)N[C@@H](Cc2cnc[nH]2)C(=O)N[C@@H](CCC(N)=O)C(=O)N2C[C@H](O)C[C@H]2C(=O)N[C@@H](Cc2c[nH]c3ccccc23)C(=O)NCC(=O)N[C@@H](Cc2c[nH]c3ccccc23)C(=O)N1C [Example 10017],1 to 9.9 nM
8,CCCC[C@H]1C(=O)N(C)[C@@H](CCCC)C(=O)NC(CC(C)C)C(=O)N[C@H](C(N)=O)CNCC(=O)N[C@@H](Cc2ccc(O)cc2)C(=O)N(C)[C@@H](C)C(=O)N[C@@H](CC(N)=O)C(=O)N2CCC[C@H]2C(=O)N[C@@H](CN)C(=O)N[C@@H](CC(C)C)C(=O)N2C[C@H](O)C[C@H]2C(=O)N[C@@H](Cc2c[nH]c3ccccc23)C(=O)N[C@@H](CCN)C(=O)N[C@@H](Cc2cn(CC(=O)O)c3ccccc23)C(=O)N1C (some centres unmarked) [Example 1034],1 to 9.9 nM
9,CCCC[C@H]1C(=O)N(C)[C@@H](CCCC)C(=O)N[C@@H](CCC(=O)O)C(=O)N[C@H](C(N)=O)CNCC(=O)N[C@@H](Cc2ccc(O)cc2)C(=O)N2CCCC[C@H]2C(=O)N[C@@H](CC(N)=O)C(=O)N2CCC[C@H]2C(=O)N[C@@H](Cc2c[nH]cn2)C(=O)N[C@@H](CCC(=O)O)C(=O)N2C[C@H](O)C[C@H]2C(=O)N[C@@H](Cc2c[nH]c3ccccc23)C(=O)N[C@@H](C)C(=O)N[C@@H](Cc2cn(CC(=O)O)c3ccccc23)C(=O)N1C [Example 9055],1 to 9.9 nM
10,CCCC[C@H]1C(=O)N(C)[C@@H](CCCC)C(=O)N[C@@H](CC(C)C)C(=O)NCCC[C@H](N)C(=O)N[C@@H](Cc2ccc(Cl)cc2)C(=O)N2CCCC[C@H]2C(=O)N[C@@H](CC(N)=O)C(=O)N2CCC[C@H]2C(=O)N[C@@H](CN)C(=O)N[C@@H](CCC(=O)O)C(=O)N2C[C@H](O)C[C@H]2C(=O)N[C@@H](Cc2c[nH]c3ccccc23)C(=O)N[C@@H](CCN)C(=O)N[C@@H](Cc2cn(CC(=O)O)c3ccccc23)C(=O)N1C [Example 10546] (H-[Orn][Phe(4-Cl)][Pip]NP[Dap]E[Hyp]W[Dab][Trp(1-CH2COOH)][NMeNle][NMeNle]L; lactam 1-C),10 to 99 nM
11,CCCC[C@H]1C(=O)N(C)[C@@H](CCCC)C(=O)N[C@@H](CC(C)C)C(=O)N[C@H](C(N)=O)CCCC(=O)N[C@@H](Cc2ccc(OC)cc2)C(=O)N2CCCC[C@H]2C(=O)N[C@@H](CC(N)=O)C(=O)N2CCC[C@H]2C(=O)N[C@@H](CN)C(=O)N[C@@H](CCC(=O)O)C(=O)N2C[C@H](O)C[C@H]2C(=O)N[C@@H](Cc2c[nH]c3ccccc23)C(=O)N[C@@H](CCN)C(=O)N[C@@H](Cc2cn(CC(=O)O)c3ccccc23)C(=O)N1C [Example 10522] (Y(Me)[Pip]NP[Dap]E[Hyp]W[Dab][Trp(1-CH2COOH)][NMeNle][NMeNle]L[Aad]-NH2; lactam N-14),10 to 99 nM
12,CCCC[C@H]1C(=O)N(C)[C@@H](CCCC)C(=O)NC(CC(C)C)C(=O)N[C@H](C(=O)NCC(N)=O)CNCC(=O)N[C@@H](Cc2ccc(O)cc2)C(=O)N(C)[C@@H](C)C(=O)N[C@@H](CC(N)=O)C(=O)N2CCC[C@H]2C(=O)N[C@@H](Cc2cnc[nH]2)C(=O)N[C@@H](CC(C)C)C(=O)N2CCC[C@H]2C(=O)N[C@@H](Cc2c[nH]c3ccccc23)C(=O)N[C@@H](CC(N)=O)C(=O)N[C@@H](Cc2c[nH]c3ccccc23)C(=O)N1C (some centres unmarked) [Example 10003],1 to 9.9 nM
13,CCCC[C@H]1C(=O)N(C)[C@@H](CCCC)C(=O)N[C@@H](CC(C)C)C(=O)N[C@H](C(=O)NCC(N)=O)CNCC(=O)N[C@@H](Cc2ccc(O)cc2)C(=O)N(C)[C@@H](C)C(=O)N[C@@H](CC(N)=O)C(=O)N2CCC[C@H]2C(=O)N[C@@H](CCC(N)=O)C(=O)N[C@@H](CCC(N)=O)C(=O)N2C[C@H](O)C[C@H]2C(=O)N[C@@H](Cc2c[nH]c3ccccc23)C(=O)N[C@@H](CC(N)=O)C(=O)N[C@@H](Cc2cn(CC(=O)O)c3ccccc23)C(=O)N1C [Example 9008],1 to 9.9 nM
14,CCCC[C@H]1C(=O)N(C)[C@@H](CCCC)C(=O)NC(CC(C)C)C(=O)N[C@H](C(=O)NCC(N)=O)CNCC(=O)N[C@@H](Cc2ccc(O)cc2)C(=O)N(C)[C@@H](C)C(=O)N[C@@H](CC(N)=O)C(=O)N2CCC[C@H]2C(=O)N[C@@H](CN)C(=O)N[C@@H](CC(C)C)C(=O)N2C[C@H](O)C[C@H]2C(=O)N[C@@H](Cc2c[nH]c3ccccc23)C(=O)N[C@@H](CCN)C(=O)N[C@@H](Cc2c[nH]c3ccccc23)C(=O)N1C (some centres unmarked) [Example 1029],10 to 99 nM
15,CCCC[C@H]1C(=O)N(C)[C@@H](CCCC)C(=O)N[C@@H](CC(C)C)C(=O)N[C@H](C(=O)NCC(N)=O)CNCC(=O)N[C@@H](Cc2ccc(OC)cc2)C(=O)N(C)[C@@H](C)C(=O)N[C@@H](CC(N)=O)C(=O)N2CCC[C@H]2C(=O)N[C@@H](CN)C(=O)N[C@@H](CC(C)C)C(=O)N2C[C@H](O)C[C@H]2C(=O)N[C@@H](Cc2c[nH]c3ccccc23)C(=O)N[C@@H](CCN)C(=O)N[C@@H](Cc2cn(CC(=O)O)c3ccccc23)C(=O)N1C [Example 1039],1 to 9.9 nM
16,CCCC[C@H]1C(=O)N(C)[C@@H](CCCC)C(=O)N[C@@H](CC(C)C)C(=O)N(C)CC(=O)NCC(=O)N[C@@H](Cc2ccc(O)cc2)C(=O)N(C)[C@@H](C)C(=O)N[C@@H](CC(N)=O)C(=O)N2CCC[C@H]2C(=O)N[C@@H](CN)C(=O)N[C@@H](CC(C)C)C(=O)N2C[C@H](O)C[C@H]2C(=O)N[C@@H](Cc2c[nH]c3ccccc23)C(=O)N[C@@H](CCN)C(=O)N[C@@H](Cc2c[nH]c3ccccc23)C(=O)N1C [Example 5009] (cyclo([Dab]W[NMeNle][NMeNle]L[Sar]GY[NMeA]NP[Dap]L[Hyp]W)),1 to 9.9 nM
